Source: the NIST ThermoML archive (doi:10.1021/je034076x)
Numbers after ± are expanded uncertainties.

Tests used:
[1] = xn = mol fraction of the nth substance listed; conditions: 101.3 kPa, Liquid; for viscosity: Capillary tube (Ostwald / Ubbelohde) method; for speed of sound: Pulse-echo method; for mass density: Vibrating tube method
[2] = excess molar enthalpy (molar enthalpy of mixing); xn = mol fraction of the nth substance listed; conditions: 101.3 kPa, Liquid, Flow calorimetry

OCC(F)(F)F [2,2,2-trifluoroethanol] + C1CCOC1
Conditions | excess molar enthalpy [kcal/mol] | mass density [kg/m3] | speed of sound [m/s] | viscosity [mPa·s]
[1], 283.15 K, x2 = 0.1022 | – | – | – | 2.107 ± 0.016
[1], 283.15 K, x2 = 0.1087 | – | 1336.89 ± 0.26 | 897.7 ± 0.6 | –
[1], 283.15 K, x2 = 0.2018 | – | – | – | 1.578 ± 0.012
[1], 283.15 K, x2 = 0.2084 | – | 1277.4 ± 0.28 | 932.6 ± 0.6 | –
[1], 283.15 K, x2 = 0.299 | – | 1226.31 ± 0.3 | 966.8 ± 0.7 | –
[1], 283.15 K, x2 = 0.3033 | – | – | – | 1.246 ± 0.01
[1], 283.15 K, x2 = 0.4037 | – | – | – | 1.037 ± 0.0087
[1], 283.15 K, x2 = 0.4038 | – | 1171.02 ± 0.33 | 1010.1 ± 0.8 | –
[1], 283.15 K, x2 = 0.4953 | – | 1125.37 ± 0.35 | 1052.1 ± 0.8 | –
[1], 283.15 K, x2 = 0.5014 | – | – | – | 0.8927 ± 0.0077
[1], 283.15 K, x2 = 0.5967 | – | 1076.79 ± 0.38 | – | –
[1], 283.15 K, x2 = 0.6013 | – | – | 1104.4 ± 0.9 | –
[1], 283.15 K, x2 = 0.6036 | – | – | – | 0.7821 ± 0.007
[1], 283.15 K, x2 = 0.7004 | – | – | – | 0.7023 ± 0.0065
[1], 283.15 K, x2 = 0.7048 | – | 1027.26 ± 0.4 | 1161.1 ± 1 | –
[1], 283.15 K, x2 = 0.7958 | – | – | 1213.8 ± 1 | –
[1], 283.15 K, x2 = 0.8048 | – | 982.37 ± 0.42 | – | –
[1], 283.15 K, x2 = 0.8532 | – | – | – | 0.6208 ± 0.006
[1], 283.15 K, x2 = 0.8868 | – | 946.79 ± 0.44 | – | –
[1], 283.15 K, x2 = 0.9033 | – | – | – | 0.5846 ± 0.0058
[1], 283.15 K, x2 = 0.9058 | – | – | 1283.2 ± 1.1 | –
[1], 283.15 K, x2 = 0.9657 | – | 913.1 ± 0.46 | 1324.1 ± 1.2 | –
[1], 298.15 K, x2 = 0.0362 | – | 1358.26 ± 0.24 | – | –
[1], 298.15 K, x2 = 0.1022 | – | – | – | 1.467 ± 0.011
[1], 298.15 K, x2 = 0.1041 | – | 1315.13 ± 0.25 | – | –
[1], 298.15 K, x2 = 0.1106 | – | – | 854.6 ± 0.6 | –
[1], 298.15 K, x2 = 0.2018 | – | – | – | 1.169 ± 0.0094
[1], 298.15 K, x2 = 0.2053 | – | 1255.19 ± 0.27 | – | –
[1], 298.15 K, x2 = 0.2095 | – | – | 885 ± 0.6 | –
[1], 298.15 K, x2 = 0.3019 | – | – | 917.9 ± 0.7 | –
[1], 298.15 K, x2 = 0.3031 | – | 1201.4 ± 0.29 | – | –
[1], 298.15 K, x2 = 0.3033 | – | – | – | 0.9632 ± 0.008
[1], 298.15 K, x2 = 0.4018 | – | 1150.15 ± 0.32 | – | –
[1], 298.15 K, x2 = 0.4037 | – | – | – | 0.8286 ± 0.0071
[1], 298.15 K, x2 = 0.4065 | – | – | 959.4 ± 0.7 | –
[1], 298.15 K, x2 = 0.4986 | – | 1103.07 ± 0.34 | – | –
[1], 298.15 K, x2 = 0.5014 | – | – | – | 0.7228 ± 0.0064
[1], 298.15 K, x2 = 0.5076 | – | – | 1003.3 ± 0.8 | –
[1], 298.15 K, x2 = 0.5989 | – | 1055.77 ± 0.37 | – | –
[1], 298.15 K, x2 = 0.6036 | – | – | – | 0.6432 ± 0.0059
[1], 298.15 K, x2 = 0.6172 | – | – | 1055.8 ± 0.9 | –
[1], 298.15 K, x2 = 0.7004 | – | – | – | 0.5841 ± 0.0055
[1], 298.15 K, x2 = 0.7019 | – | 1009.19 ± 0.39 | – | –
[1], 298.15 K, x2 = 0.7123 | – | – | 1104.9 ± 1 | –
[1], 298.15 K, x2 = 0.7978 | – | 967.32 ± 0.41 | – | –
[1], 298.15 K, x2 = 0.8205 | – | – | 1164.5 ± 1.1 | –
[1], 298.15 K, x2 = 0.8532 | – | – | – | 0.5222 ± 0.0052
[1], 298.15 K, x2 = 0.899 | – | 924.33 ± 0.44 | – | –
[1], 298.15 K, x2 = 0.9033 | – | – | – | 0.4959 ± 0.005
[1], 298.15 K, x2 = 0.9042 | – | – | 1216.3 ± 1.1 | –
[1], 313.15 K, x2 = 0.1022 | – | – | – | 1.057 ± 0.0085
[1], 313.15 K, x2 = 0.1024 | – | 1291.64 ± 0.24 | 808.3 ± 0.6 | –
[1], 313.15 K, x2 = 0.1991 | – | 1234.96 ± 0.26 | 834.3 ± 0.6 | –
[1], 313.15 K, x2 = 0.2018 | – | – | – | 0.8873 ± 0.0074
[1], 313.15 K, x2 = 0.3032 | – | 1178.51 ± 0.29 | 868.4 ± 0.7 | –
[1], 313.15 K, x2 = 0.3033 | – | – | – | 0.7583 ± 0.0065
[1], 313.15 K, x2 = 0.3554 | – | 1151.61 ± 0.3 | 886.4 ± 0.7 | –
[1], 313.15 K, x2 = 0.4037 | – | – | – | 0.6648 ± 0.0059
[1], 313.15 K, x2 = 0.4972 | – | 1082.56 ± 0.34 | 942.6 ± 0.8 | –
[1], 313.15 K, x2 = 0.5014 | – | – | – | 0.5936 ± 0.0055
[1], 313.15 K, x2 = 0.596 | – | 1037.96 ± 0.36 | 985.9 ± 0.9 | –
[1], 313.15 K, x2 = 0.6036 | – | – | – | 0.5356 ± 0.0051
[1], 313.15 K, x2 = 0.7004 | – | – | – | 0.4916 ± 0.0048
[1], 313.15 K, x2 = 0.7191 | – | 983.05 ± 0.39 | 1045.5 ± 1 | –
[1], 313.15 K, x2 = 0.7922 | – | 952.13 ± 0.41 | 1082.8 ± 1 | –
[1], 313.15 K, x2 = 0.8532 | – | – | – | 0.4431 ± 0.0045
[1], 313.15 K, x2 = 0.8937 | – | 909.37 ± 0.43 | 1138.7 ± 1.1 | –
[1], 313.15 K, x2 = 0.9033 | – | – | – | 0.4239 ± 0.0044
[2], 283.15 K, x2 = 0.053 | -0.0915 ± 0.0012 | – | – | –
[2], 283.15 K, x2 = 0.107 | -0.173 ± 0.00215 | – | – | –
[2], 283.15 K, x2 = 0.212 | -0.295 ± 0.00382 | – | – | –
[2], 283.15 K, x2 = 0.316 | -0.381 ± 0.00478 | – | – | –
[2], 283.15 K, x2 = 0.417 | -0.415 ± 0.00526 | – | – | –
[2], 283.15 K, x2 = 0.517 | -0.413 ± 0.00526 | – | – | –
[2], 283.15 K, x2 = 0.618 | -0.375 ± 0.00478 | – | – | –
[2], 283.15 K, x2 = 0.717 | -0.304 ± 0.00382 | – | – | –
[2], 283.15 K, x2 = 0.81 | -0.216 ± 0.00287 | – | – | –
[2], 283.15 K, x2 = 0.908 | -0.107 ± 0.00143 | – | – | –
[2], 283.15 K, x2 = 0.954 | -0.0509 ± 0.000717 | – | – | –
[2], 298.15 K, x2 = 0.053 | -0.113 ± 0.00143 | – | – | –
[2], 298.15 K, x2 = 0.107 | -0.224 ± 0.00287 | – | – | –
[2], 298.15 K, x2 = 0.212 | -0.369 ± 0.00454 | – | – | –
[2], 298.15 K, x2 = 0.316 | -0.45 ± 0.0055 | – | – | –
[2], 298.15 K, x2 = 0.417 | -0.479 ± 0.00598 | – | – | –
[2], 298.15 K, x2 = 0.517 | -0.467 ± 0.00574 | – | – | –
[2], 298.15 K, x2 = 0.618 | -0.418 ± 0.00526 | – | – | –
[2], 298.15 K, x2 = 0.717 | -0.341 ± 0.0043 | – | – | –
[2], 298.15 K, x2 = 0.81 | -0.237 ± 0.00311 | – | – | –
[2], 298.15 K, x2 = 0.908 | -0.117 ± 0.00143 | – | – | –
[2], 298.15 K, x2 = 0.954 | -0.0559 ± 0.000717 | – | – | –
[2], 313.15 K, x2 = 0.053 | -0.113 ± 0.00143 | – | – | –
[2], 313.15 K, x2 = 0.107 | -0.222 ± 0.00287 | – | – | –
[2], 313.15 K, x2 = 0.212 | -0.375 ± 0.00478 | – | – | –
[2], 313.15 K, x2 = 0.316 | -0.474 ± 0.00598 | – | – | –
[2], 313.15 K, x2 = 0.417 | -0.512 ± 0.00645 | – | – | –
[2], 313.15 K, x2 = 0.517 | -0.5 ± 0.00621 | – | – | –
[2], 313.15 K, x2 = 0.618 | -0.447 ± 0.0055 | – | – | –
[2], 313.15 K, x2 = 0.717 | -0.361 ± 0.00454 | – | – | –
[2], 313.15 K, x2 = 0.81 | -0.254 ± 0.00311 | – | – | –
[2], 313.15 K, x2 = 0.908 | -0.125 ± 0.00167 | – | – | –
[2], 313.15 K, x2 = 0.954 | -0.0614 ± 0.000956 | – | – | –
